Measured values taken from a melting point compilation (Tetko et al.; mined from patent text by program, amines drawn as free bases though some values may be those of a salt).

Row | melting point | SMILES
1 | 93.2 °C | O=C(Cc1cccc2ccccc12)Nc1cc([C@H]2C[C@@H](NC(=O)CC3CC3)C2)[nH]n1
2 | 163 to 164 °C | CC1(C)C(=O)c2c(cc(OCC(=O)O)c(Cl)c2Cl)C1c1ccccc1 (configuration not stated)
3 | 232 °C | CC1Cc2c([nH]c3ccccc23)-c2nc3c(c(=O)n21)CCCC3 (configuration not stated)
4 | 174 to 175 °C | COC(=O)/C=C/c1ccc2c(c1)C(C)(C)CC(=O)N2
5 | 161 to 163 °C | O=C(O)C1c2cc(F)ccc2-c2ccc(F)cc21
6 | 116 to 117 °C | CONS(=O)(=O)c1ccc(C)cc1
7 | 233 °C | COc1ccc(C(=O)Nc2c(Cl)cncc2Cl)c2cc(C)oc12
8 | 138 to 139 °C | c1cc2c(s1)CNCCS2
9 | 265 °C | Nc1c(F)c(N2CCC(n3cc(-c4ccccc4)nn3)C2)c(F)c2c1c(=O)c(C(=O)O)cn2C1CC1 (configuration not stated)
10 | 146 to 147 °C | CN1C(=O)OC[C@@H]1Cc1ccc([N+](=O)[O-])cc1
11 | 182 to 184 °C | CCOC(=O)N1CCC2(CC1)N=C(N)c1c(F)ccc(Cl)c1N2
12 | 243 to 245 °C | O=C1C(Br)=C(Br)C(=O)c2ncccc21
13 | 150 °C | Cc1ccc2cc(-c3cccc4ccccc34)nc(N3CCN(C)CC3)c2c1
14 | 78 to 80 °C | CCN(CC)C(=O)c1ccc(C(=O)N2CCN(c3ncccc3NC(C)C)CC2)cc1
15 | 124 to 126 °C | Cc1cc(Cl)ccc1OC(Cn1cncn1)C(O)C(C)(C)C (configuration not stated)
16 | > 270 °C | CC(C)Cc1csc2[nH]c(=O)c(=O)[nH]c12
17 | 90 to 91 °C | COCCOCCN1C(=O)C2(COc3cc4c(cc32)OCCO4)c2ccccc21 (configuration not stated)
18 | 179 to 180 °C | CCc1cc2ccccn2c1C(=O)c1ccc(O)cc1
19 | 245 to 246 °C | Cc1nc(C)c(-c2ccnc(Nc3ccc(Cl)c(CO)c3)n2)s1
20 | 165 to 166 °C | CCN(CC)c1ccc(C2OC(=O)c3cc(N(C)C)ccc32)cc1 (configuration not stated)
21 | 297 to 298 °C | COCCn1cc2c(C3C(=O)Nc4ccc(Br)cc43)nc(NCCCN(C)C)nc2n1 (configuration not stated)
22 | 143 °C | CCN1CCc2ccc(Nc3ncc(Cl)c(N[C@H]4CCCC[C@H]4C(=O)NC)n3)cc2CC1 (relative stereo)
23 | 148 °C | COc1ccc(-c2nc3ccccc3nc2-c2ccc(OC)cc2)cc1
24 | 164 to 166 °C | COc1ccc(C(=O)c2cccc3c2CCC3C(N)=O)cc1 (configuration not stated)

Row | melting point | SMILES
25 | > 260 °C | O=C(O)c1nn(Cc2ccc(Cl)cc2Cl)c2c1Cc1cc(Cl)ccc1-2
26 | 117 to 119 °C | CCc1nc2nccc(C)c2[nH]1
27 | 56.3 °C | CCCCC[C@H]1CC[C@H](CC[C@H]2CC[C@H](C#N)CC2)CC1
28 | 190 °C | Cc1nc(-c2ccc(C(F)(F)F)cc2)sc1CSc1ccc(OCC(=O)O)cc1
29 | 103 to 106 °C | CCOCC1COc2ccc(N)cc2O1 (configuration not stated)
30 | 211 °C | CN(c1cccc2cc(C3=NCC4(CCN(CC#N)CC4)S3)[nH]c12)S(=O)(=O)c1cccs1
31 | 95 to 96 °C | CCCCCCCCCCCCc1ccc(COc2cc(C(=O)O)nc3ccc(C)cc23)cc1
32 | 288 °C | Cc1c(C(=O)Nc2ccc(N3CCN(C4CCOCC4)CC3)c(C#N)c2)cnn1-c1ccc(Br)cc1
33 | 64.8 to 65.5 °C | CCCc1ccc(C=Nc2ccc(C#N)cc2)cc1
34 | 145 to 147 °C | CC(C)(CNc1ccnc2cc(Cl)ccc12)NCc1ccc(C(F)(F)F)cc1
35 | 87 °C | CCOC(=O)c1ccc(N2CCC(NC[C@H](O)COc3ccc(O)c(S(=O)(=O)NC)c3)CC2)cc1
36 | > 260 °C | Cc1sc(Nc2cccc(I)n2)nc1-c1cn[nH]c1
37 | > 250 °C | CCc1nc2c(N)nc3ccccc3c2n1CC1(O)CCSCC1
38 | 165 to 168 °C | OC1CSC(Oc2ccncc2)C(O)C1O (configuration not stated)
39 | 160 to 162 °C | COc1ccnc(CCc2nc3cc(-c4ccc(S(=O)(=O)N5CCCN(C)CC5)cc4)cnc3[nH]2)c1
40 | 264 °C | CS(=O)(=O)c1ccc(-c2cc(C(=O)O)sc2-c2ccc(F)cc2)cc1
41 | 94.2 °C | O=C(O)C(=O)c1ccoc1
42 | 150 to 153 °C | COc1ccc(Cn2c(=O)cc(C)c3cnc(N4CCC[C@H]4CO)nc32)cc1Cl
43 | 46 to 49 °C | CC(CCN(C)c1ccccc1)=NO
44 | 184 to 186 °C | O=C(O)CNC1CCc2ccccc21 (configuration not stated)
45 | 118 °C | C[C@H](c1ccc(F)cc1)N1CCN(c2cc(Oc3cccc4ncc(N)nc34)ncn2)CC1
46 | 66 to 68 °C | CCCc1c(OCCCCCOc2ccc3c(c2CCC)OC(C(=O)O)CC3)ccc(C(C)=O)c1O (configuration not stated)
47 | 165 to 168 °C | COc1cc(OCc2ccccn2)ccc1/C=C/C(=O)CC(=O)/C=C/c1ccc2cc[nH]c2c1
48 | 276 to 281 °C | O=C(Nc1cccc2c(N=P(c3ccccc3)(c3ccccc3)c3ccccc3)ccnc12)c1c(Cl)cccc1Cl

Row | melting point | SMILES
49 | 66 to 67 °C | N#CC1=CCC(c2ccccc2)c2ccccc21 (configuration not stated)
50 | 115 to 119 °C | Cc1ccccc1C(=O)Nc1ccc(C(=O)N2Cc3ccccc3C(=O)c3ccccc32)cc1
51 | > 275 °C | Nc1nc(-c2cc(Cl)ccc2Cl)nc(N2CCNC(=O)C2)n1
52 | 142 to 144 °C | NCC1CCc2[nH]c3ccc(Cl)cc3c2C1 (configuration not stated)
53 | 145 °C | CC(C#Cc1ccc(-c2cccnc2S)o1)N(O)C(N)=O (configuration not stated)
54 | 103 to 106 °C | CC1(C)COC(=O)N1Cc1ccccc1[N+](=O)[O-]
55 | 194 °C | COC(C)c1cccc(NC(=O)NCC(=O)N(CC(=O)N(C)c2ccccc2)c2ccccc2)c1 (racemic)
56 | 104 to 106 °C | CCOC(=O)C1=C(C)NC(COC(C)=O)=C(C(=O)OCC)C1c1ccccc1 (configuration not stated)
57 | 144 to 146 °C | O=CC1c2ccccc2C(C=O)c2c(Cl)cccc21 (configuration not stated)
58 | 176 to 181 °C | O=C(O)CC(CC(=O)O)c1cccc2oc3c(c12)CCCC3
59 | 89 to 91 °C | O=C1CCCc2c(F)cc(F)cc21
60 | 136 °C | CCOc1cc2ncc(NCc3ccccc3)nc2cc1OCC
61 | 85 °C | CNC(=S)NS(=O)(=O)c1cc(CCNC(=O)c2cnc3ccccc3c2)ccc1OC
62 | 108 °C | C=CCOc1ccc2ccc(NC(=O)c3ccc(OC)cc3)nc2n1
63 | 177 to 178 °C | Cc1cc([C@@H](O)[C@@H](C)N2CCC(O)(c3ccc(C(F)(F)F)cc3)CC2)cc(C)c1O[Si](C(C)C)(C(C)C)C(C)C (relative stereo)
64 | 103 to 104 °C | COc1ccc(C#N)c(C=C(C)N(C)C)n1
65 | 116 to 118 °C | COc1cc(COc2nn(-c3ccccc3)cc2/C=C/c2coc(C(C)C)n2)ccc1OCc1nc(-c2ccc(CC(=O)O)cc2)oc1C
66 | 120 to 122 °C | COc1ccc(CNC(=O)c2[nH]c(C)c(-c3nc4ccc(C(=O)c5ccccc5)cc4[nH]3)c2C)cc1OC
67 | 170 to 172 °C | C=CCNCC(COc1cccc2c1CC(=O)N2)OC(=O)C12CC3CC(CC(C3)C1)C2 (configuration not stated)
68 | 159 to 160 °C | CC(C)(C)OC(=O)NC1CCCCc2cc(OCC3CCCCC3)c(C(=O)O)cc21 (configuration not stated)
69 | 166 °C | CC(C)(C)OC(=O)NCC(=O)Nc1c(C(=O)CC(=O)Nc2nccs2)cccc1C(F)(F)F
70 | 93 to 95 °C | Cc1ccc(CN(C)C(=O)C23CC4CC(CC(C4)C2)C3)cc1
71 | 39 °C | OC[C@@H](O)c1ccccc1Cl
72 | 70 to 72 °C | COCc1ccc2c(c1)ncn2-c1cccc(-c2ccccc2)c1

Row | melting point | SMILES
73 | 146 to 148 °C | CCCc1c(OCCCOc2ccc(C(=O)O)cc2Cl)ccc(C(C)=O)c1OC(C)=O
74 | 113 to 114 °C | COc1ccc2c(c1)C(=O)CC1C2C(O)CC2(C)C(O)CCC12 (configuration not stated)
75 | 46 to 48 °C | O=C(O)COCCc1ccccc1
76 | 90 to 91 °C | CNc1c(C(=O)OC)c(C)nc2c1c1ccccc1n2C
77 | 180 °C | CCCCc1ccc(-c2c(C)[nH]c(=O)n2C)cc1
78 | 79.5 to 82 °C | CC(=O)Oc1ccc(O[C@@H]2CCN(C)C[C@H]2c2ccccc2)cc1 (relative stereo)
79 | 123 to 125 °C | CSc1nnc(-c2ccc(OCC(O)CNCCOc3ccc(O)c(C(N)=O)c3)cc2)n1C (configuration not stated)
80 | 149 to 151 °C | CC(=O)OC[C@H]1O[C@@H]2[C@@H](Sc3ccc(Cl)cc3N2CCCN(C)C)[C@@H](OC(C)=O)[C@@H]1OC(C)=O
81 | 196 to 198 °C | CC(=O)NCC1CN(c2ccc(NC=O)c(F)c2)C(=O)O1 (configuration not stated)
82 | 137 °C | CC(CF)(CF)C(O)C(Oc1ccc(Cl)cc1)n1ccnc1 (configuration not stated)
83 | > 260 °C | O=C(O)Cc1cc(C(=O)Cc2ccc(C(=O)O)cc2)ccc1O
84 | 115 °C | Clc1ccccc1-c1nc2cc(Cn3ccnc3)ccc2[nH]1
85 | 211 to 213 °C | O=C(O)c1ccc(OCc2ccccc2)c(Cl)c1
86 | 176 to 177 °C | Cn1ncc(C(=O)Nc2ccc(F)cc2Cl)c1N
87 | 162 to 167 °C | O=C1c2ccccc2C(=O)c2cc(OCC3CO3)ccc21 (configuration not stated)
88 | 186 to 194 °C | O=Cc1cn(C(c2ccccc2)(c2ccccc2)c2ccccc2)cn1
89 | 234 to 235 °C | CCCCN(C(=O)c1cnc(N2CCNC2=O)nc1N)c1cccc(C(F)(F)F)c1
90 | 178 to 179 °C | O=C1C2=C(CCCC2)C(O)N1c1ccc(Cl)cc1F (configuration not stated)
91 | 206 to 210 °C | CC(C)c1ccc2nc3c(C(=O)O)cccn3c(=O)c2c1
92 | 89 to 91 °C | CCc1c(OC)nc(OC)nc1C(=O)c1cc(C)cc(C=O)c1
93 | 104 to 105 °C | Cc1ccc(NCCC(N)=S)c(C)c1
94 | 64 to 67 °C | CCOC(=O)C1(C(=O)Nc2ccc(Br)cc2C)CCCC1
95 | 242 to 245 °C | N=C(N)NCCCCC(=O)Nc1ccc(OCc2ccccc2)c(C(=O)NCCC(=O)O)c1

Row | SMILES | melting point
96 | CS(=O)(=O)NC1CCN(c2ccc(C#N)c3ccccc23)C1 (configuration not stated) | 128 to 129 °C
97 | Clc1ccc2c(c1)C(c1ccccc1)=NCc1n[nH]cc1-2 | 241 to 243 °C
98 | CCC1C(C)=NN=C(c2ccccc2C)c2cc(OC)c(OC)cc21 (configuration not stated) | 170 to 171 °C
99 | CC1C(=O)NC(=O)N(Cc2ccccc2)C1=O (configuration not stated) | 128 to 129 °C
100 | Cc1cccc2c(=O)[nH]c(C3CCN(C)CC3)cc12 | 196 to 198 °C
101 | CCCNC1=Nc2cccnc2N(CC)c2ncccc21 | 114 to 116 °C
102 | Brc1csc(-c2cn([C@H]3CN4CCC3CC4)nn2)c1 | 106 °C
